According to patent publication US20250230171A1 (MOMA Therapeutics, Inc., priority 2023, published 2025):
Like-named read-outs stand apart in the source and are kept apart here.

Assays:
DLD1 BRCA2 (−/−) cells = experiment: 7-day cell viability assay (CellTiter-Glo), DLD1 BRCA2 (−/−); format: cell-based, human; settings: 7-day CellTiter-Glo, n=2, read-out: Viability IC50 (uM) DLD1 BRCA2 null
Outline: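 7-day growth assay in DLD1 cells with or without BRCA2; seeding densities chosen to keep log-linear growth. Compound: 10 uM top, 3-fold, 9 points. Endpoint: CTG ATP luminescence at RT.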

DLD1 WT cells = experiment: 7-day cell viability assay (CellTiter-Glo), DLD1 parental (WT); format: cell-based, human; settings: 7-day CellTiter-Glo, n=2

COc1cnc(Cl)cc1-c1cc(C)ncc1C(=O)Nc1nc2c(s1)CN(C(=O)c1ncc(C)c(C(F)(F)F)c1C)C2 [Example 1011, 2′-chloro-N-(5-(3,5-dimethyl-4-(trifluoromethyl)picolinoyl)-5,6-dihydro-4H-pyrrolo[3,4-d]thiazol-2-yl)-5′-methoxy-6-methyl-[4,4′-bipyridine]-3-carboxamide]
IC50 (DLD1 BRCA2 (−/−) cells; Homo sapiens, DLD-1, 168 h): 0.001 to 0.1 µM
IC50 (DLD1 WT cells; Homo sapiens, DLD-1, 168 h): ≥ 10 µM

N-(5-(2-Chloro-3-(difluoromethyl)benzoyl)-5,6-dihydro-4H-pyrrolo[3,4-d]thiazol-2-yl)-4-(5-cyano-2-methoxyphenyl)-6-methylnicotinamide [Example 443]
IC50 (DLD1 BRCA2 (−/−) cells): 0.001 to 0.1 µM
IC50 (DLD1 WT cells): ≥ 10 µM

Cc1cc(-c2cc(Cl)ncc2OC(F)F)c(C(=O)Nc2nc3c(s2)CN(C(=O)c2ncc(Cl)cn2)C3)cn1 [Example 910, 2′-chloro-N-(5-(5-chloropyrimidine-2-carbonyl)-5,6-dihydro-4H-pyrrolo[3,4-d]thiazol-2-yl)-5′-(difluoromethoxy)-6-methyl-[4,4′-bipyridine]-3-carboxamide]
IC50 (DLD1 BRCA2 (−/−) cells; Homo sapiens, DLD-1, 168 h): 0.001 to 0.1 µM
IC50 (DLD1 WT cells; Homo sapiens, DLD-1, 168 h): ≥ 10 µM

CCc1nc(C(F)(F)F)ccc1C(=O)N1Cc2nc(NC(=O)c3cnc(C)cc3-c3cc(Cl)ncc3OC)sc2C1 [Example 970, 2′-chloro-N-(5-(2-ethyl-6-(trifluoromethyl)nicotinoyl)-5,6-dihydro-4H-pyrrolo[3,4-d]thiazol-2-yl)-5′-methoxy-6-methyl-[4,4′-bipyridine]-3-carboxamide]
IC50 (DLD1 BRCA2 (−/−) cells; Homo sapiens, DLD-1, 168 h): 0.001 to 0.1 µM
IC50 (DLD1 WT cells; Homo sapiens, DLD-1, 168 h): ≥ 10 µM

COc1ncc(C(F)(F)F)c(C(=O)N2Cc3nc(NC(=O)c4cnc(C)cc4-c4cc(Cl)ncc4OC)sc3C2)n1 [Example 994, 2′-chloro-5′-methoxy-N-(5-(2-methoxy-5-(trifluoromethyl)pyrimidine-4-carbonyl)-5,6-dihydro-4H-pyrrolo[3,4-d]thiazol-2-yl)-6-methyl-[4,4′-bipyridine]-3-carboxamide]
IC50 (DLD1 BRCA2 (−/−) cells; Homo sapiens, DLD-1, 168 h): 0.001 to 0.1 µM
IC50 (DLD1 WT cells; Homo sapiens, DLD-1, 168 h): ≥ 10 µM

COc1cnc(Cl)cc1-c1cc(C)ncc1C(=O)Nc1nc2c(s1)CN(C(=O)c1nc(C(F)(F)F)ccc1C)C2 [Example 965, 2′-chloro-5′-methoxy-6-methyl-N-(5-(3-methyl-6-(trifluoromethyl)picolinoyl)-5,6-dihydro-4H-pyrrolo[3,4-d]thiazol-2-yl)-[4,4′-bipyridine]-3-carboxamide]
IC50 (DLD1 BRCA2 (−/−) cells; Homo sapiens, DLD-1, 168 h): 0.001 to 0.1 µM
IC50 (DLD1 WT cells; Homo sapiens, DLD-1, 168 h): ≥ 10 µM

COc1cnc(Cl)cc1-c1cc(C)ncc1C(=O)Nc1nc2c(s1)CN(C(=O)c1nc(C)c(OC(F)F)cc1C)C2 [Example 1027, 2′-chloro-N-(5-(5-(difluoromethoxy)-3,6-dimethylpicolinoyl)-5,6-dihydro-4H-pyrrolo[3,4-d]thiazol-2-yl)-5′-methoxy-6-methyl-[4,4′-bipyridine]-3-carboxamide]
IC50 (DLD1 BRCA2 (−/−) cells; Homo sapiens, DLD-1, 168 h): 0.001 to 0.1 µM
IC50 (DLD1 WT cells; Homo sapiens, DLD-1, 168 h): ≥ 10 µM

COc1cnc(Cl)cc1-c1cc(C)ncc1C(=O)Nc1nc2c(s1)CN(C(=O)c1nc(C(F)(F)F)ccc1OC)C2 [Example 937, 2′-chloro-5′-methoxy-N-(5-(3-methoxy-6-(trifluoromethyl)picolinoyl)-5,6-dihydro-4H-pyrrolo[3,4-d]thiazol-2-yl)-6-methyl-[4,4′-bipyridine]-3-carboxamide]
IC50 (DLD1 BRCA2 (−/−) cells; Homo sapiens, DLD-1, 168 h): 0.001 to 0.1 µM
IC50 (DLD1 WT cells; Homo sapiens, DLD-1, 168 h): ≥ 10 µM

COc1cnc(Cl)cc1-c1cc(C)ncc1C(=O)Nc1nc2c(s1)CN(C(=O)c1ncc(Cl)nc1C)C2
IC50 (DLD1 BRCA2 (−/−) cells; Homo sapiens, DLD-1, 168 h): 0.5 to 2 µM
IC50 (DLD1 WT cells; Homo sapiens, DLD-1, 168 h): ≥ 10 µM

COc1cnc(Cl)cc1-c1cc(C)ncc1C(=O)Nc1nc2c(s1)CN(C(=O)c1ncc(C(F)(F)F)nc1OC)C2 [Example 945, 2′-chloro-5′-methoxy-N-(5-(3-methoxy-5-(trifluoromethyl)pyrazine-2-carbonyl)-5,6-dihydro-4H-pyrrolo[3,4-d]thiazol-2-yl)-6-methyl-[4,4′-bipyridine]-3-carboxamide]
IC50 (DLD1 BRCA2 (−/−) cells; Homo sapiens, DLD-1, 168 h): 0.001 to 0.1 µM
IC50 (DLD1 WT cells; Homo sapiens, DLD-1, 168 h): ≥ 10 µM

COc1ccc(C(F)F)c(C(=O)N2Cc3nc(NC(=O)c4cnc(C)cc4-c4cc(Cl)ncc4OC)sc3C2)n1
IC50 (DLD1 BRCA2 (−/−) cells; Homo sapiens, DLD-1, 168 h): 0.001 to 0.1 µM
IC50 (DLD1 WT cells; Homo sapiens, DLD-1, 168 h): ≥ 10 µM

COc1cnc(Cl)cc1-c1cc(C)ncc1C(=O)Nc1nc2c(s1)CN(C(=O)c1nc(C(F)F)ccc1F)C2
IC50 (DLD1 BRCA2 (−/−) cells; Homo sapiens, DLD-1, 168 h): 0.001 to 0.1 µM
IC50 (DLD1 WT cells; Homo sapiens, DLD-1, 168 h): ≥ 10 µM
